According to patent US8530623B2, “Proteasome-activating lightening peptides and compositions containing same” (ISP Investments Inc., priority 2009, dated 2013):
Where no end group is shown, it is not given here.

Test system: melanin present in the epidermis of human skin samples
Experiment: Depigmenting effect ex vivo on human skin biopsies (Fontana-Masson melanin staining)
Format: cell-based
Conditions: 2 applications per day
Protocol: 6 mm diameter biopsies are taken from human skin samples. These biopsies are maintained in ex vivo survival in the presence of a specific medium (DMEM 1 g/L, HAMF12, SVF and antibiotics) on inserts deposited in 6-well plates. The biopsies are then pretreated for 24 hours with the active principle at 3% concentration at a rate of 2 applications per day. Other skin samples will not be pretreated with the active principle and will be used as the control condition. Subsequently, the biopsies are subjected to UVB irradiation at a rate of 100 mJ/cm^2. The pretreated biopsies are again treated for 24 hours with the active principle at 3% concentration at a rate of 2 applications per day. After this second treatment, a quantitative evaluation of the quantity of melanin present in the epidermis of skin samples is carried out histologically, with an optical microscope, after staining according to the Fontana-Masson method.
To do this, the skin biopsies are enclosed in paraffin and histological sections with a thickness of 4 μm are made. These sections are then stained by the Fontana-Masson technique: The paraffin is removed from the slides; the slides being hydrated and then treated with a silver ammonium hydroxide solution. […]

In the case of Asp-Cys-Arg-NH2 [SEQ ID No. 2], the “melanin level (pigmentation level) in the epidermis, absence of UVB irradiation” value (active principle at 3% concentration, 24 hours, no UVB, vs untreated skin, optical microscope) was “reduces the melanin level” and the “melanin synthesis induced by UVB irradiation (pigmentation level after UVB)” value (pretreated 24 hours at 3%, UVB 100 mJ/cm^2, treated again 24 hours, vs untreated control) was “very distinctly reduced”.
